Values of other authors in patent publication US10034825B2, “Luminate eye gel” (Jan Marini Skin Research, priority 2015, dated 2018).

Details: after penetration through the skin to the living cells

Q: With `CC(=O)Oc1c(C)c(C)c2c(c1C)CCC(C)(CCC[C@H](C)CCC[C@H](C)CCCC(C)C)O2` (stereo partly shown) [Tocopheryl acetate] as the compound, how does the “fraction converted to free tocopherol” value read?
A: Its value is “about 5%”.
